Consider 7 compounds from patent US7144880B2, “Compositions relating to novel compounds and targets thereof” (Regents of the University of Michigan, priority 2003, dated 2006).

Read-outs that look alike come from different tables or passages of the source. A value given as a limit tells only on which side of the number the result lay.

The subject of data set [1] is Ramos B cells. Description: cells. It is filed as cell-based, human. As for the experimental part:
Cell viability is assessed by staining with propidium iodide (PI, 1 μg/mL). PI fluorescence is measured using a FACScalibur flow cytometer (Becton Dickinson, San Diego, Calif.). Measurement of hypodiploid DNA is conducted after incubating cells in DNA-labeling solution (50 μg/mL of PI in PBS containing 0.2% Triton and 10 μg/mL RNAse A) overnight at 4 degrees C. The data is analyzed using the CellQuest software excluding aggregates.

In data set [2] the target is T1, mitochondrial F1F0-ATPase (Bos taurus, UniProt P13621).
T1 construct: from tissue
Description: ATPase activity in sub-mitochondrial particles (SMPs). In kind it is biochemical, bovine. As to conditions: 80 μM. The source says:
Oligomycin, a macrolide natural product that binds to the mitochondrial F1F0-ATPase, induces a state 3 to 4 transition and generates O2^− like Bz-423. Based on these similarities, it is possible that the F1F0-ATPase is also the molecular target for Bz-423. To test this hypothesis, the effect of Bz-423 on ATPase activity in sub-mitochondrial particles (SMPs) was examined.
>40 derivatives of Bz-423 were developed to determine the elements on this novel agent required for biological activity. […] The potency of these analogues in cell based assays correlated with the ED50 values in ATPase inhibition experiments using SMPs.

Data set [3] relates to Ramos B cells. It is filed as cell-based, human. As to conditions: micromolar FK506.
For a further data set, the target named is T2, human OSCP (Homo sapiens, UniProt P48047).
T2 construct: made in house; host or cells: E. coli
Description: Quenching of intrinsic OSCP fluorescence on titration (binding isotherm). Conditions: Bz-Cl, binds less tightly. The text has this:
Oligomycin is a macrolide natural product that binds to the mitochondrial F1F0-ATPase, induces a state 3 to 4 transition, and as a result, generates ROS (e.g., O2^−). In preferred embodiments, the present invention binds the OSCP component of the mitochondrial F1F0-ATPase. In certain embodiments, screening assays of the present invention permit detection of binding partners of the OSCP. OSCP is an intrinsically fluorescent protein. In certain embodiments, titrating a solution of test compounds of the present invention into an E. Coli sample overexpressed with OSCP results in quenching of the intrinsic OSCP fluorescence. In other embodiments, fluorescent or radioactive test compounds can be used in direct binding assays. In other embodiments, competition binding experiments can be conducted. In this type of assay, test compounds are assessed for their ability to compete with Bz-423 for binding to the OSCP. In some embodiments, the compounds of the present invention cause a reduced increase in cellular ROS levels and reduced apoptosis in cells through regulation of the OSCP gene (e.g., altering expression of the OSCP gene). In further embodiments, the present invention functions by altering the molecular motions of the ATPase motor.
To determine if Bz-423 indeed binds to the OSCP and the affinity of the interaction, human OSCP was overexpressed in E. coli. […]

The next data set concerns cells. In kind it is cell-based.
In data set [4] the test system is ornithine decarboxylase (ODC). The data set is described as follows: ODC activity in treated cells, conversion of 3H-ornithine to putrescine. It is filed as cell-based. As to conditions: cells treated 4 h. As for the experimental part:
In these experiments, the conversion of ornithine to putrescine was quantified using ^3H-ornithine. For comparisons, control cells were treated with vehicle control or difluoromethyl ornithine (DFMO), a potent inhibitor of ornithine decarboxylase (like Bz-423, DFMO is a potent anti-proliferative agent). […] The reduction in ODC activity was paralleled by a decrease in ODC protein levels measured under the same conditions.
As described above, Bz-423 induced apoptosis was signaled by an ROS response that arose from MRC complex III as a result of the state 3 to 4 transition. It was next sought to determine if the ROS response, critical for apoptosis, also mediated these effects on ODC. If the ROS was required for the decrease in ODC activity, it would likewise be implicated as potentially part of the anti-proliferative response to Bz-423. To test this, Ramos cells were treated with Bz-423, DFMO, or vehicle control for 4 h. In parallel, a second group of cells was pre-incubated with MnTBAP to limit the ROS and then cultured with Bz-423, DFMO, and vehicle control.

Data set [5] concerns panel of cells in Table 2. Description: Antiproliferation against the panel of cells, 3 d. In kind it is cell-based. As to conditions: after 3 d.
Data set [6] deals with isolated rat liver mitochondria. The data set is described as follows: ROS production in isolated mitochondria (DCFH oxidation to DCF). It is filed as biochemical. As to the method:
Male Long Evans rats are starved overnight and sacrificed by decapitation. Liver samples are homogenized in ice cold buffer A (250 mM sucrose, 10 mM Tris, 0.1 mM EGTA, pH 7.4), and nuclei and cellular debris are pelleted (10 min, 830 g, 4° C.). Mitochondria are collected by centrifugation (10 min, 15,000 g, 4° C.), and the supernatant is collected as the S15 fraction. The mitochondrial pellet is washed three times with buffer B (250 mM sucrose, 10 mM Tris, pH 7.4), and re-suspended in buffer B at 20–30 mg/mL. Mitochondria are diluted (0.5 mg/mL) in buffer C (200 mM sucrose, 10 mM Tris, pH 7.4, 1 mM KH2PO4, 10 μM EGTA, 2.5 μM rotenone, 5 mM succinate) containing 2′,7′-dichlorodihydrofluorescin diacetate (DCFH-DA, 1 μM). For state 3 measurements, ADP (2 mM) is included in the buffer, and prior to the addition of Bz-423, mitochondria are allowed to charge for 2 min. To induce state 4, oligomycin (10 μM) is added to buffer C. […] To detect effects on O2^− and delta ψm, mitochondria are incubated for 15 min at 37° C. in buffer C with vehicle, Bz-423, or CCCP containing DHE (5 μM) or DIOC6(3) (20 nM), and aliquots are removed for analysis by fluorescence microscopy.
O2^− production by Bz-423 may result from binding to a protein within mitochondria or a target in another compartment that signals mitochondria to generate ROS. To distinguish between these alternatives, isolated rat liver mitochondria were assayed for ROS production by monitoring the oxidation of 2′,7′-dichlorodihydrofluorescin diacetate to of 2′,7′-dichlorofluorescin in the presence and absence of Bz-423. In this assay, the rate of DCF production increased after a lag period during which endogenous reducing equivalents were consumed and the acetate moieties on the probe were hydrolyzed to yield 2′,7′-dichlorodihydrofluorescin, the redox-active species.

Setting [7] is: Ramos B cells, 24 h, propidium iodide exclusion, flow cytometry, error ±5%, read-out: EC50 (μM), cell death.

T2 sequence (P48047 24-213): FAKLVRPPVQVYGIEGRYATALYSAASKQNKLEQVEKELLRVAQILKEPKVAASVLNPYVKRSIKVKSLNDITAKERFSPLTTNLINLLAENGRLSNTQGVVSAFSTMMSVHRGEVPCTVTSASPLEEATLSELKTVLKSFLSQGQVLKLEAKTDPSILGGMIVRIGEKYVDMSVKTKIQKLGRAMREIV

As to `CN1C(=O)C(Cc2ccc3ccccc3c2)N=C(c2ccccc2)c2cc(Cl)ccc21` (centres unmarked) [Compound 2], the EC50 with Ramos B cells [1] (setting [7]) is more than 80 µM.
For `CN1C(=O)CN=C(c2ccc(Cl)cc2)c2cc(Cl)ccc21` [4-Cl-diazepam, 4-chlorodiazepam], the “Inhibition of mitochondrial ATPase activity” value in data set [2] is reported as “do not significantly inhibit”.
As to `Cc1cc(C2=NC(Cc3ccc4ccccc4c3)C(=O)N(C)c3ccc(Cl)cc32)ccc1O` (centres unmarked) [Compound 16], in the data set with Ramos B cells [1], the “Cytotoxic potency compared with Bz-423” value is reported as “does not alter the activity”. Moreover, the EC50 in the data set on Ramos B cells [1] (assessed as described in Table 1, read-out: EC50, cell death) stood at 3 µM. Besides, the “Inhibition of compound-induced cell death by FK506” value in the data set with Ramos B cells [3] was “≈ 60%”.
Take `CN1C(=O)CN=C(c2ccc(O)cc2)c2cc(Cl)ccc21` [Compound 1]: the EC50 in the data set on Ramos B cells [1] (setting [7]) was more than 80 µM.
Regarding `CCC(C)N(C)C(=O)c1cc2ccccc2c(-c2ccccc2Cl)n1` (centres unmarked) [PK11195, reference compound], in the data set with Ramos B cells [1] (Homo sapiens, Ramos B cells, 24 h, propidium iodide exclusion, flow cytometry, error ±5%, read-out: EC50 (μM), cell death), the EC50 was more than 80 µM. Besides, the “Inhibition of mitochondrial ATPase activity” value in data set [2] was “do not significantly inhibit”.
Take `CN1C(=O)C(Cc2ccc3ccccc3c2)N=C(c2ccc(Cl)cc2)c2cc(Cl)ccc21` (centres unmarked) [Bz-Cl]: the Kd on human OSCP is approximately 5 µM. For the same compound, the “Decrease of cytotoxic activity compared to Bz-423” value with cells was approximately 80%. In addition, in data set [4], the “Effect on ODC activity” value is recorded as “inhibited ODC activity”. Further, the “Reduction of proliferation compared with Bz-423” value in data set [5] was “comparable ED50 values”.
As to antimycin A [reference compound], the “Increase in rate of ROS production versus control” value in data set [6] (state 3 respiration, aerobic, after induction phase, slopes compared to control) is given as “nearly two-fold”. Moreover, the “ROS production in state 4 mitochondria” value in data set [6] (state 4 respiration) is “is active”.
